“Also recorded” adds a separate entry of the source.
Tests used:
[1] = test system: H3K9 and H3K27 acetylation (class I HDACs); assay: Western blotting of H3K9 and H3K27 acetylation in 4TO7 cells; type: cell-based, mouse; conditions: 10^–5 M, 6 h, western blot
Protocol: The hybrids were assessed to determine their HDACi and VDR agonist activity as well as their antiproliferative properties relative to DK-406. HDACi activity was assessed in vitro using an acetylated lysine substrate that releases a fluorescent reporter upon HDACi deacetylation and subsequent trypsin digestion. Increasing sidechain length of pyrimidine hybrids enhanced the potency of HDAC6 inhibition, with several compounds inhibiting HDAC6 with a sub-micromolar IC50, similar to that of DK-406 (Fig. 4a). […] Next, we analyzed the effects of compounds on levels of H3K9 and H3K27 acetylation in 4TO7 cells, which are controlled by class I HDACs[29],[30]. […] We also tested the capacity of analogues to induce tubulin acetylation, controlled by class II enzyme HDAC6[32], in 4TO7 cells. […]
Figure 4 (a) Results of in vitro assays for inhibition of purified HDAC2 and HDAC6 by DK-406 and heterocyclic hybrids as measured by inhibition of deacetylation of a fluorometric substrate (see Methods for details). […]
After treatments, 4T07 cells were solubilized in Lysis Buffer (20 mM Tris, pH 8, 150 mM NaCl, 1% Triton X-100, 3,5 mM SDS, 13 mM deoxycholic acid) and proteins extracted were separated on a 4–15% Tris/Glycine/SDS gel (BIO RAD). […] Signal was detected using Clarity ECL chemiluminescent substrates (Bio-Rad) and ChemiDoc Imaging System from the same company was used to quantify the intensity of bands. […]

[2] = molecular target: T1, VDR (Mus musculus, UniProt P48281); assay: Cyp24a1 induction assay for VDR agonism in 4T1 cells; type: cell-based; conditions: 24 h
T1 construct: endogenous in cells; host or cells: 4TO7 and 4T1 mouse triple-negative breast cancer cells
T1 sequence (P48281 1-422): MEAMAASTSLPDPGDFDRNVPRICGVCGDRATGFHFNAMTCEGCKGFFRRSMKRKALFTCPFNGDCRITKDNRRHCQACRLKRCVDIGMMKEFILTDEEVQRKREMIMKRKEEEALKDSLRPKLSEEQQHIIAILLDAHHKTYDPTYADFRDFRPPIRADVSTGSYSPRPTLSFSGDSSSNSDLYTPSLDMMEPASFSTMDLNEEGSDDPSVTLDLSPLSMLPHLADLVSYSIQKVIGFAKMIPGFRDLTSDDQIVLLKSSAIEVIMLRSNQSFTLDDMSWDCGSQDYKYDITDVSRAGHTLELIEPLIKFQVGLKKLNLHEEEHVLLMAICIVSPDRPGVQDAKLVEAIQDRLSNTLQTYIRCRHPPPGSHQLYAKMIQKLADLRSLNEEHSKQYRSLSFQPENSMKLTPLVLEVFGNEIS
Protocol: Figure 5 (a) and (b) Analysis of induced Cyp24a1 expression in 4TO7 (a) and 4T1 (b) cells to test for VDR agonism of DK-406 and heterocyclic analogues after 24 h treatment. c-e. Analysis of the cytotoxicity of hybrid compounds after 24 h using the MTGlo assay (see Methods for details) in 4TO7 (c), 4T1 (d) and MDA-MB-231 (e) cells. […] Each condition was compared to control. *: p ≤ 0.05, **: p ≤ 0.01, ***: p ≤ 0.001, ****: p ≤ 0.0001, ns: not significant.
As previously, we were interested in studying the efficacy of hybrids in models of TNBC. We used the 4T1 cell line[20] as well as the related TNBC cell line 4TO7, which was derived from the same mouse tumor as 4T1 cells in Balb/c mice[33]. 4TO7 cells readily form primary tumors. […] These lines also have the advantage that anti-tumor efficacy studies can be performed in Balb/c mice, which have intact immune systems. Compounds were initially tested for VDR agonist activity in 4TO7 cells by screening induction of the VDR target gene Cyp24a1. […] The pyridyl hybrids were then tested for efficacy in vitro in 4TO7 and 4T1 cells using an MT-Glo assay in which only viable cells can convert a precursor into a substrate for a luciferase bioluminescence assay (Fig. 5c,d; see Methods for details).
Mouse 4T07 cells and 4T01 cells were cultured in DMEM (319–005-CL; WISENT Inc.) supplemented with 10% heat-inactivated FBS. […]

Compound	H3 acetylation at K9 and K27 [1]	VDR agonist activity (Cyp24a1 induction) [2]
CCC(CC)(c1ccc(OCCCCCC(=O)NO)cc1)c1ccc(OCC(O)C(C)(C)C)c(C)n1 (stereo not shown) [AM-193]	enhanced H3 acetylation, although to a lesser degree than DK-406	full agonists; also recorded: potency of AM-193 was confirmed
CCC(CC)(c1ccc(C(=O)NCCCCCC(=O)NO)cc1)c1ccc(OCC(O)C(C)(C)C)c(C)c1 (stereo not shown) [DK-406]	induced H3 acetylation at K9 and K27	full agonists
